According to US6569878B1, “Substituted 4-amino-thiazol-2-yl compounds as cyclin-dependent kinase inhibitors” (Agouron Pharmaceuticals Inc., priority 1997, dated 2003):
pIC50, pKi: −log10 of the molar value.

What was measured:
MCF-7 = experiment: Inhibition of cell growth, MTT assay, MCF-7; assay type: cell-based; conditions: MCF-7, MTT assay; for pIC50 / IC90: Homo sapiens, MCF7
Protocol: (§1) The water-insoluble purple formazan product was then detected spectrophotometrically. […] Plates were incubated for four hours before addition of inhibitor compounds. Different concentrations of inhibitor compounds were added in 0.5% (v/v) dimethylsulfoxide (15 μL/well), and cells were incubated at 37° C. (5% CO2) for four to six days (depending on cell type). At the end of the incubation, MTT was added to a final concentration of 0.2 mg/mL, and cells were incubated for 4 hours more at 37° C. After centrifugation of the plates and removal of medium, the absorbance of the formazan (solubilized in dimethylsulfoxide) was measured at 540 nm.

Saos-2 = experiment: Inhibition of cell growth, MTT assay, Saos-2; assay type: cell-based; conditions: Homo sapiens; Saos-2, MTT assay
Summary of the method: (§2)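 Cells rested 4 h after plating, then exposed to graded compound concentrations in 0.5% (v/v) DMSO for four to six days (cell-type dependent) at 37° C, 5% CO2. Viability was read by MTT (0.2 mg/mL final, 4 h at 37° C), with DMSO-solubilized formazan measured at 540 nm.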

HCT116 = experiment: Inhibition of cell growth, MTT assay, HCT116; assay type: cell-based, human; conditions: for pIC50 / IC90: Homo sapiens, HCT-116
Summary of the method: as §2

CDK2/cyclin A = biological target: T1, CDK2/cyclin A (Homo sapiens, UniProt P24941); experiment: Inhibition of CDK2/cyclin A retinoblastoma kinase activity; assay type: biochemical; conditions: read-out: Ki CDK 2/A
T1 construct: made in house; host or cells: CDK2: insect cells (baculovirus); cyclin A: E. coli, then limited proteolysis
Summary of the method: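 Baculovirus-expressed CDK2 with excess proteolyzed cyclin A (or purified complex), 150 nM or 5 nM, phosphorylating an Rb fragment with 25 μM [32/33P]ATP, pH 7.4, 30° C, 20 min. Filter-captured radioactivity by phosphorimager; apparent Ki from fits to competitive or tight-binding competitive inhibition using measured ATP Km.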

[1] = biological target: T2, complex of human CDK4 and cyclin D3 (Homo sapiens, UniProt P11802); experiment: Inhibition of CDK4/cyclin D retinoblastoma kinase activity (D-type cyclin is D3); assay type: biochemical; conditions: superscript a: D-type cyclin is D3; apparent Ki; read-out: Ki CDK 4/D
T2 construct: made in house; host or cells: insect cells, co-infected with baculovirus
Summary of the method: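 Radiometric assay: [32P]- or [33P]ATP phosphate incorporation into Rb substrate at 30°C for 20 min, stopped with EDTA, filter-captured and phosphorimaged.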

MDA-MB-468 = experiment: Inhibition of cell growth, MTT assay, MDA-MB-468; assay type: cell-based; conditions: Homo sapiens; MDA-MB-468, MTT assay
Protocol: as §1

U2-OS = experiment: Inhibition of cell growth, MTT assay, U2-OS; assay type: cell-based; conditions: for pIC50 / IC90: Homo sapiens, U2OS
Summary of the method: as §2

[2] = biological target: T3, human CDK1 (cdc2) and cyclin B (Homo sapiens, UniProt P06493); experiment: Inhibition of CDK1(cdc2)/cyclin B histone H1 kinase activity; assay type: biochemical; conditions: read-out: Ki CDK 1/B
T3 construct: purchased New England Biolabs (Beverly Mass.)
Summary of the method: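 CDK1/cyclin B (commercial, or CDK1/GST-cyclin B1 from co-infected insect cells) phosphorylated histone H1 with 25 μM [32/33P]ATP at pH 7.4, 30° C for 20 min, 2% DMSO. Product captured on phosphocellulose and read by phosphorimager; apparent Ki from competitive or tight-binding fits, with Km for ATP determined.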

[3] = biological target: T4, complex of human CDK4 and genetically truncated (1-264) cyclin D3 (Homo sapiens, UniProt P11802); experiment: Inhibition of CDK4/cyclin D retinoblastoma kinase activity (D-type cyclin is truncated D3); assay type: biochemical; conditions: superscript c: D-type cyclin is truncated D3; read-out: Ki CDK 4/D
T4 construct: made in house; host or cells: insect cells, co-infected with baculovirus
Protocol: Cyclin-dependent kinase activity was measured by quantifying the enzyme-catalyzed, time-dependent incorporation of radioactive phosphate from [^32P]ATP or [^33P]ATP into a protein substrate. Unless noted otherwise, assays were performed in 96-well plates in a total volume of 50 μL, in the presence of 10 mM HEPES (N-[2-hydroxyethyl]piperazine-N′-[2-ethanesulfonic acid]) (pH 7.4), 10 mM MgCl2, 25 μM adenosine triphosphate (ATP), 1 mg/mL ovalbumin, 5 μg/mL leupeptin, 1 mM dithiothreitol, 10 mM β-glycerophosphate, 0.1 mM sodium vanadate, 1 mM sodium fluoride, 2.5 mM ethylene glycol-bis(β-aminoethyl ether)-N,N,N′N′-tetraacetic acid (EGTA), 2% (v/v) dimethylsulfoxide, and 0.03-0.4 μCi [^32/33P]ATP per reaction. Reactions were initiated with enzyme, incubated at 30° C., and terminated after 20 minutes by the addition of ethylenediaminetetraacetic acid (EDTA) to 250 mM. The phosphorylated substrate was then captured on a nitrocellulose or phosphocellulose membrane using a 96-well filtration manifold, and unincorporated radioactivity was removed by repeated washing with 0.85% phosphoric acid. Radioactivity was quantified by exposing the dried membranes to a phosphorimager.
Apparent Ki values were measured by assaying enzyme activity in the presence of different inhibitor compound concentrations and subtracting the background radioactivity measured in the absence of enzyme. The kinetic parameters (kcat, Km for ATP) were measured for each enzyme under the usual assay conditions by determining the dependence of initial rates on ATP concentration. Inhibition data were fit to an equation for competitive inhibition using Kaleidagraph (Synergy Software), or were fit to an equation for competitive tight-binding inhibition using the software KineTic (BioKin, Ltd.).
A complex of human CDK4 and cyclin D3, or a complex of cyclin D1 and a fusion protein of human CDK4 and gluathione-S-transferase (GST-CDK4), or a complex of human CDK4 and genetically truncated (1-264) cyclin D3, was purified using traditional biochemical chromatographic techniques from insect cells that had been co-infected with the corresponding baculovirus expression vectors (see e.g., Meijer and Kim, “Chemical Inhibitors of Cyclin-Dependent Kinases,” Methods in Enzymol,. vol. 283 (1997), pp. 113-128.). The enzyme complex (5 or 50 nM) was assayed with 0.3-0.5 μg of purified recombinant retinoblastoma protein fragment (Rb) as a substrate. The engineered Rb fragment (residues 386-928 of the native retinoblastoma protein; 62.3 kDa) contains the majority of the phosphorylation sites found in the native 106-kDa protein, as well as a tag of six histidine residues for ease of purification. Phosphorylated Rb substrate was captured by microfiltration on a nitrocellulose membrane and quantified using a phosphorimager as described above. For measurement of tight-binding inhibitors, the enzyme complex concentration was lowered to 5 nM, and the assay duration was extended to 60 minutes, during which the time-dependence of product formation was linear.

SW-480 = experiment: Inhibition of cell growth, MTT assay, SW-480; assay type: cell-based; conditions: Homo sapiens, SW480; SW-480, MTT assay
Protocol: Inhibition of cell growth was measured using the tetrazolium salt assay, which is based on the ability of viable cells to reduce 3-(4,5-dimethylthiazol-2-yl)-2,5-[2H]-diphenyltetrazolium bromide (MTT) to formazan (Mossman, Journal of Immunological Methods, vol. 65 (1983), pp. 55-58). The water-insoluble purple formazan product was then detected spectrophotometrically. Various cell lines (HCT-116, Saos-2, U2-OS, SW480, COLO-205, RXF-393, M14, MDA-MB-468, and MCF7) were grown in 96-well plates. Cells were plated in the appropriate medium at a volume of 135 μl/well in either McCoy's 5A Medium (for Saos-2, U2-OS, SW480, and HCT-116 cells), RPMI (for COLO-205, RXF-393, M14 cells), or Minimum Essential Medium Eagle (for MDA-MB-468 and MCF7 cells). Plates were incubated for four hours before addition of inhibitor compounds. Different concentrations of inhibitor compounds were added in 0.5% (v/v) dimethylsulfoxide (15 μL/well), and cells were incubated at 37° C. (5% CO2) for four to six days (depending on cell type). At the end of the incubation, MTT was added to a final concentration of 0.2 mg/mL, and cells were incubated for 4 hours more at 37° C. After centrifugation of the plates and removal of medium, the absorbance of the formazan (solubilized in dimethylsulfoxide) was measured at 540 nm. […] All results were compared to control cells treated only with 0.5% (v/v) dimethylsulfoxide.

T3 sequence (P06493 whole entry): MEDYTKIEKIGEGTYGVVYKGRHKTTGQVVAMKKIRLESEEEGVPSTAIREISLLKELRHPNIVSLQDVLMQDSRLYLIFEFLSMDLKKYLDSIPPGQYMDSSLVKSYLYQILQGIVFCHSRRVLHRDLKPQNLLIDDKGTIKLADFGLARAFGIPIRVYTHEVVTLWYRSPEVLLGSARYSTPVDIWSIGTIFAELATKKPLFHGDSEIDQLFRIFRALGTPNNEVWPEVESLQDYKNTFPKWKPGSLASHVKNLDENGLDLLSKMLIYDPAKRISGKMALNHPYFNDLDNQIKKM
T3 sequence (P14635 whole entry partner): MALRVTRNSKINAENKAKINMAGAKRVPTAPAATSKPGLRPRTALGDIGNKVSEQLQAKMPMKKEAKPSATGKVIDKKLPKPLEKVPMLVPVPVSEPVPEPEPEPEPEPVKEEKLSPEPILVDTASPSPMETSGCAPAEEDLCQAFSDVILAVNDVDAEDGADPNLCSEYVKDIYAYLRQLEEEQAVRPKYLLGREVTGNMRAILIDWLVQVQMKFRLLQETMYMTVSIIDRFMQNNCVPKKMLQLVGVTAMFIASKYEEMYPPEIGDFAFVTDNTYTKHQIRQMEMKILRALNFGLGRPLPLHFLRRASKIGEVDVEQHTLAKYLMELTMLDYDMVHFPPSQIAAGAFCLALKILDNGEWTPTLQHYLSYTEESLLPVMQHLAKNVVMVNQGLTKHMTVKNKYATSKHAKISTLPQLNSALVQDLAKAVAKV
T2 sequence (P11802 whole entry): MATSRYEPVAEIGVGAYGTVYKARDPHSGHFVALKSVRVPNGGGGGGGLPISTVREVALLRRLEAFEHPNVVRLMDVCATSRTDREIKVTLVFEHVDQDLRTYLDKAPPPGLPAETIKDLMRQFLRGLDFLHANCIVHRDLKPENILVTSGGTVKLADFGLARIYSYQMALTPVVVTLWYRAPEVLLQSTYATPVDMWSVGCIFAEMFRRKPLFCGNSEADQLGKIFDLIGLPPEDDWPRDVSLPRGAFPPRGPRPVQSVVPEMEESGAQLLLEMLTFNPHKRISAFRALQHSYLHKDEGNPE
T2 sequence (P30281 whole entry partner): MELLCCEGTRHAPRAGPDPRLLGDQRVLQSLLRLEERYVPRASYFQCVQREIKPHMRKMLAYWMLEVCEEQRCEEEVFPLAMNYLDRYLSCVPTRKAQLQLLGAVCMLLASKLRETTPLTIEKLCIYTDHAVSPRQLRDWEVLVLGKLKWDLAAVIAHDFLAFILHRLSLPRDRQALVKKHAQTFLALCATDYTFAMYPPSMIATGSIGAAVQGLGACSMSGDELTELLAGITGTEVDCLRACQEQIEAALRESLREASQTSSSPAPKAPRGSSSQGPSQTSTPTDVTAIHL
T4 sequence (P11802 whole entry, the tested form may be a part): as the sequence (P11802 whole entry) above
T4 sequence (P30281 1-264 partner limits assumed): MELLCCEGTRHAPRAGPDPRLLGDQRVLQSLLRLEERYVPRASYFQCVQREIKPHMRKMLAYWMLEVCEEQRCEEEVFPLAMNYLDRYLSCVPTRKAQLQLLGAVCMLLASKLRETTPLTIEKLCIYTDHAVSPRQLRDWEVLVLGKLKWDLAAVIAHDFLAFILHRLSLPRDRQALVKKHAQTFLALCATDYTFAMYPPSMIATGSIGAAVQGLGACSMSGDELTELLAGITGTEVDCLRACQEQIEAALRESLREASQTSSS

Row | SMILES | pIC50 (MCF-7) | IC90 (MCF-7) [nM] | pIC50 (Saos-2) | IC90 (Saos-2) [nM] | pIC50 (HCT116) | IC90 (HCT116) [nM] | pKi (CDK2/cyclin A) | pKi [1] | pIC50 (MDA-MB-468) | IC90 (MDA-MB-468) [nM] | pIC50 (U2-OS) | IC90 (U2-OS) [nM] | pKi [2] | pKi [3] | % inhibition of growth in parentheses after >25 (MCF-7; concentration not given) | % inhibition of growth in parentheses after >25 (HCT116; concentration not given) [%] | % inhibition of growth in parentheses after >25 (U2-OS; concentration not given) [%] | pIC50 (SW-480) | IC90 (SW-480) [nM]
1 | CN(C)CCN(C)c1ccc(Nc2nc(N)c(C(=O)c3c(F)cccc3F)s2)cc1 [C(110), (4-Amino-2-{4-[(2-dimethylamino-ethyl)-methyl-amino]-phenylamino}-thiazol-5-yl)-(2,6-difluoro-phenyl)-methanone] | 6.40 | 1700 | 6.05 | 1800 | 6.19 | 1700 | 6.59 | 7.85 | 6.36 | 750 | 6.15 | 1600 | 6.98 | – | – | – | – | – | –
2 | CN(CCC#N)c1ccc(Nc2nc(N)c(C(=O)c3c(F)cccc3F)s2)cc1 [C(129), 3-({4-[4-Amino-5-(2,6-difluorobenzoyl)-thiazol-2-yl-amino]-phenyl}-methylamino)-propionitrile] | – | – | – | – | – | – | 6.57 | – | – | – | – | – | – | 7.19 | – | – | – | – | –
3 | Cc1c(C(=O)c2sc(Nc3ccc4nc[nH]c4c3)nc2N)sc2ccccc12 [C(8), [4-Amino-2-(1H-benzoimidazol-6-ylamino)-thiazol-5-yl]-(3-methyl-benzo[b]thiophen-2-yl)-methanone] | 4.82 | > 25000 | 5.21 | 18000 | 4.74 | > 25000 | 6.41 | 7.57 | 5.17 | 15000 | 5.00 | > 25000 | 7.01 | – | (82%) | 88 | 84 | 5.08 | 20000
4 | CN(C)CCCN(C)c1ccc(Nc2nc(N)c(C(=O)c3c(F)cccc3F)s2)cc1 [C(126), (4-Amino-2-{4-[(3-dimethylamino-propyl)-methyl-amino]-phenylamino}-thiazol-5-yl)-(2,6-difluoro-phenyl)-methanone] | – | – | – | – | 6.22 | 1400 | 6.41 | – | – | – | – | – | – | 7.62 | – | – | – | – | –
5 | NC(=O)C1CCN(c2ccc(Nc3nc(N)c(C(=O)c4c(F)cccc4F)s3)cc2)CC1 [L, {4-Amino-2-[4-(4-carboxamido-piperidin-1-yl)-phenylamino]-thiazol-5-yl}-(2,6-difluoro-phenyl)-methanone] | – | – | – | – | < 4.90 | – | – | – | – | – | – | – | 6.71 | 7.66 | – | – | – | – | –
6 | COc1ccc(Nc2nc(N)c(C(=O)c3ccccc3[N+](=O)[O-])s2)cc1 [A(10), [4-Amino-2-(4-methoxy-phenylamino)-thiazol-5-yl]-(2-nitro-phenyl)-methanone] | 6.19 | 5500 | 5.89 | 4600 | 6.02 | 1800 | 6.50 | 7.44 | 6.14 | 1700 | 6.05 | 1600 | 7.24 | – | – | – | – | 6.15 | 7500
7 | CN1CCCN(c2ccc(Nc3nc(N)c(C(=O)c4c(F)cccc4F)s3)cc2)CC1 [C(128), {4-Amino-2-[4-(1-methyl-[1,4]-diazepan-4-yl)-phenylamino]-thiazol-5-yl}-(2,6-difluoro-phenyl)-methanone] | – | – | – | – | – | – | 6.36 | – | – | – | – | – | – | 7.52 | – | – | – | – | –
8 | Nc1nc(Nc2ccc(N3CCN(c4ccccn4)CC3)cc2)sc1C(=O)c1c(F)cccc1F [K, {4-Amino-2-[4-(4-pyridin-2-yl-piperazin-1-yl)-phenylamino]-thiazol-5-yl}-(2,6-difluoro-phenyl)-methanone] | – | – | 5.22 | 13000 | 5.46 | 6200 | 6.44 | – | – | – | 5.46 | 6000 | – | 7.37 | – | – | – | – | –
9 | Nc1nc(Nc2ccc(N3CCC(C(=O)O)CC3)cc2)sc1C(=O)c1c(F)cccc1F [M, 1-{4-[4-Amino-5-(2,6-difluoro-benzoyl)-thiazol-2-ylamino]-phenyl}-piperidine-4-carboxylic Acid] | – | – | – | – | < 4.60 | – | 6.54 | – | – | – | – | – | – | 7.34 | – | – | – | – | –
10 | Nc1nc(Nc2ccc(N3CCN(c4ccncc4)CC3)cc2)sc1C(=O)c1c(F)cccc1F [C(127)] | – | – | – | – | – | – | 6.67 | – | – | – | – | – | – | 7.59 | – | – | – | – | –
11 | Nc1nc(Nc2ccc(-c3ccncc3)cc2)sc1C(=O)c1c(F)cccc1F [C(122), [4-Amino-2-(4-pyridin-4-yl-phenylamino)-thiazol-5-yl]-(2,6-difluoro-phenyl)-methanone] | – | – | 5.43 | 10000 | 5.77 | 4800 | 6.78 | – | – | – | 5.82 | 4700 | – | 7.46 | – | – | – | – | –
12 | Nc1nc(Nc2ccc(N3CCN(CC4CC4)CC3)cc2)sc1C(=O)c1c(F)cccc1F [C(121), {4-Amino-2-[4-(4-cyclopropylmethyl-piperazin-1-yl)-phenylamino]-thiazol-5-yl}-(2,6-difluoro-phenyl)-methanone] | – | – | 5.29 | 12000 | 5.60 | 5300 | 6.02 | – | – | – | 5.22 | 11000 | – | 7.97 | – | – | – | – | –
